What was measured:
[1] = tested on: MV4-11 childhood AML cells; assay: Annexin V-FITC/PI apoptosis flow cytometry, MV4-11; assay type: cell-based, human; settings: MV4-11, 24 h, clinically achievable concentrations
Method: (§1) AML cell lines used as described herein include MOLM-13, MV4-11, and THP-1. MOLM-13 cells are purchased from AddexBio (San Diego, Calif., USA). MV4-11 and THP-1 cell lines are purchased from the American Type Culture Collection (Manassas, Va., USA). The cell lines are cultured in RPMI 1640 with 10-20% fetal bovine serum (Thermo Fisher Scientific, Waltham, Mass., USA), 2 mM L-glutamine, 100 U/mL penicillin, and 100 μg/mL streptomycin. All cells are cultured in a 37° C. humidified atmosphere containing 5% CO2/95% air. The cell lines are authenticated at the Genomics Core at Karmanos Cancer Institute using the Power-Plex 16 System from Promega (Madison, Wis., USA). […]
(§2) Human adult AML cell lines (MOLM-13), human childhood AML cell lines (MV4-11 and THP-1), and cytarabine-resistant (araC-R) acute monocytic leukemia (AMoL) cell lines (U937) are treated with venetoclax and d-cis-3-(4-hydroxyphenyl)-4-(4-hydroxyphenyl)-8-methylchroman-7-ol (Compound A), alone or in combination, and are subject to flow cytometry analysis using Annexin V-fluorescein isothiocyanate (FITC)/propidium iodide (PI) Apoptosis Kit (Beckman Coulter, Brea, Calif.). Results are expressed as percent Annexin V-positive (Annexin V+) cells. […] The extent and direction of the antileukemic interaction between venetoclax and Compound A is determined by calculating the combination index (CI). […]

[2] = tested on: cytarabine resistant (araC-R) U937 acute monocytic leukemia (AMoL) cells; assay: Annexin V-FITC/PI apoptosis flow cytometry, araC-R U937; assay type: cell-based; settings: araC-R U937, 24 h, clinically achievable concentrations
Method: Human adult AML cell lines (MOLM-13), human childhood AML cell lines (MV4-11 and THP-1), and cytarabine-resistant (araC-R) acute monocytic leukemia (AMoL) cell lines (U937) are treated with venetoclax and d-cis-3-(4-hydroxyphenyl)-4-(4-hydroxyphenyl)-8-methylchroman-7-ol (Compound A), alone or in combination, and are subject to flow cytometry analysis using Annexin V-fluorescein isothiocyanate (FITC)/propidium iodide (PI) Apoptosis Kit (Beckman Coulter, Brea, Calif.). Results are expressed as percent Annexin V-positive (Annexin V+) cells. For the AML/AMoL cell lines, experiments are performed three independent times in triplicate, and the data presented are from one representative experiment. The extent and direction of the antileukemic interaction between venetoclax and Compound A is determined by calculating the combination index (CI). CI<1 indicates synergistic effects, CI=1 indicates additive effects, and CI>1 indicates antagonistic effects. ***indicates p<0.001 compared to control.

[3] = tested on: MOLM-13 AML cells; assay: Annexin V-FITC/PI apoptosis flow cytometry, MOLM-13; assay type: cell-based, human; settings: MOLM-13, 24 h, clinically achievable concentrations
Method: as §1, §2

[4] = tested on: THP-1 childhood AML cells; assay: Annexin V-FITC/PI apoptosis flow cytometry, THP-1; assay type: cell-based, human; settings: THP-1, 24 h, clinically achievable concentrations
Method: as §1, §2

[5] = tested on: THP-1 childhood AML cells; assay: Viable cells (annexin V negative and PI negative) by flow cytometry, THP-1; assay type: cell-based, human; settings: THP-1, 24 hr, clinically achievable concentrations
Method: (§3) FIG. 2C depicts the percentage of viable THP-1 childhood AML cells following treatment of THP-1 childhood AML cell lines with venetoclax (VEN) and d-cis-3-(4-hydroxyphenyl)-4-(4-hydroxyphenyl)-8-methylchroman-7-ol (Compound A), alone or in combination, for 24 h. and then subjected to Annexin V-FITC/PI staining and flow cytometry analysis. Viable cells (annexin V negative and PI negative) were gated. Viable cell counts from no drug treatment controls were set at 100%, and the rest of the samples were normalized to the no drug treatment controls. The data were presented as mean percent of viable cells from triplicates with standard errors. […]
as §2

[6] = tested on: MOLM-13 AML cells; assay: Viable cells (annexin V negative and PI negative) by flow cytometry, MOLM-13; assay type: cell-based, human; settings: MOLM-13, 24 hr, clinically achievable concentrations
Method: FIG. 2A depicts the percentage of viable MOLM-13 AML cells following treatment of MOLM-13 AML cell lines with venetoclax (VEN) and d-cis-3-(4-hydroxyphenyl)-4-(4-hydroxyphenyl)-8-methylchroman-7-ol (Compound A), alone or in combination, for 24 h and then subjected to Annexin V-FITC/PI staining and flow cytometry analysis. Viable cells (annexin V negative and PI negative) were gated. Viable cell counts from no drug treatment controls were set at 100%, and the rest of the samples were normalized to the no drug treatment controls. The data were presented as mean percent of viable cells from triplicates with standard errors.
AML cell lines used as described herein include MOLM-13, MV4-11, and THP-1. […]
as §2

[7] = tested on: MV4-11 childhood AML cells; assay: Viable cells (annexin V negative and PI negative) by flow cytometry, MV4-11; assay type: cell-based, human; settings: MV4-11, 24 hr, clinically achievable concentrations
Method: as §3, with “2B” for “2C”, “MV4-11” for “THP-1”
as §2

## Cc1c(O)ccc2c1OC[C@@H](c1ccc(O)cc1)[C@H]2c1ccc(O)cc1 [Compound A, d-cis-3-(4-hydroxyphenyl)-4-(4-hydroxyphenyl)-8-methylchroman-7-ol]
[1]
  apoptosis (Annexin V+ cells): high levels of apoptosis
[2]
  apoptosis (Annexin V+ cells): high levels of apoptosis
[3]
  apoptosis (Annexin V+ cells): high levels of apoptosis
[4]
  apoptosis (Annexin V+ cells): high levels of apoptosis
[5]
  viability (percent of viable cells vs no drug control): dose-dependent decrease in viability
[6]
  viability (percent of viable cells vs no drug control): dose-dependent decrease in viability
[7]
  viability (percent of viable cells vs no drug control): dose-dependent decrease in viability
